Assay results: patent publication US10100011B2, “Pentadienoyl piperidine derivative and use thereof” (Industry-Academic Cooperation Foundation, Yonsei University, priority 2014, dated 2018)

How the values were obtained:
[1] = tested on: C57BL/6J mice; experiment: Body weight and visceral fat weight in mice fed high-fat diet; type: in vivo, mouse; conditions: about 0.05% compound in high-fat diet, 10 weeks
Procedure: (§1) An obesity induction diet used in this experiment was a high-fat diet (HFD: 40% fat calories, 17 g of lard+3% corn oil/100 g diet), and the compositions of diets including the LJ-2501, LJ-2488, LJ-2495, LJ-2496 compounds were identical to that of HFD, except that each of the compounds was included in an amount of about 0.05% (Table 2). As a control drug, an anti-obesity drug, sibutramine (Sibut), was added in an amount of about 0.01% to the high-fat diet and a normal diet group (Chow) was fed with commercial rodent chow.
(§2) 5-week old 40 male C57BL/6J mice (Orient Bio., Korea) were fed with hard feed and accommodated in a laboratory environment for one week. Subsequently, in accordance with a randomized block method, the mice were randomly grouped into a normal diet group, a high-fat diet control group, two experimental substance groups, and […] and raised for a total of 10 weeks (n=8/group). Diets were supplied with water between 10 am and 11 am every day. An intake amount was measured every day and the body weights of the mice were measured every week. To prevent temporal weight change due to feed intake, feedboxes were removed and, after two hours, the body weights were measured. The experimental animals were fasted for 12 hours or more and then anesthetized with diethyl ether, followed by collecting blood, liver, and visceral adipose tissues (epididymal fat, perirenal fat, mesenteric fat, and retroperitoneal fat). The collected samples were washed with 0.1 M phosphate buffered saline (pH 7.4) and then weighed. Blood samples collected from abdominal aortas were centrifuged at 1000×g for 15 minutes, thereby separating plasma.

[2] = tested on: C57BL/6J mice; experiment: Inflammatory cytokine concentrations in blood of mice fed high-fat diet (ELISA); type: in vivo, mouse; conditions: about 0.05% compound in high-fat diet, 10 weeks
Procedure: as §1, §2
The concentrations of TNFα, MCP-1, IL-6, leptin, and insulin in plasma were measured according to an ELISA method using the Mouse Adipokine Magnetic Bead Panel kit (MADKMAG-71K, EMD Millipore Corporation, Mass., USA).

[3] = target: T1, human recombinant SIRT1 enzyme (Homo sapiens, UniProt Q96EB6); experiment: SIRT1 activity measurement (SIRT1 Fluorometric Drug Discovery Kit); type: biochemical
T1 construct: purchased ENZO Life Sciences Inc., NY, USA BML-AK555
T1 sequence (Q96EB6 1-747): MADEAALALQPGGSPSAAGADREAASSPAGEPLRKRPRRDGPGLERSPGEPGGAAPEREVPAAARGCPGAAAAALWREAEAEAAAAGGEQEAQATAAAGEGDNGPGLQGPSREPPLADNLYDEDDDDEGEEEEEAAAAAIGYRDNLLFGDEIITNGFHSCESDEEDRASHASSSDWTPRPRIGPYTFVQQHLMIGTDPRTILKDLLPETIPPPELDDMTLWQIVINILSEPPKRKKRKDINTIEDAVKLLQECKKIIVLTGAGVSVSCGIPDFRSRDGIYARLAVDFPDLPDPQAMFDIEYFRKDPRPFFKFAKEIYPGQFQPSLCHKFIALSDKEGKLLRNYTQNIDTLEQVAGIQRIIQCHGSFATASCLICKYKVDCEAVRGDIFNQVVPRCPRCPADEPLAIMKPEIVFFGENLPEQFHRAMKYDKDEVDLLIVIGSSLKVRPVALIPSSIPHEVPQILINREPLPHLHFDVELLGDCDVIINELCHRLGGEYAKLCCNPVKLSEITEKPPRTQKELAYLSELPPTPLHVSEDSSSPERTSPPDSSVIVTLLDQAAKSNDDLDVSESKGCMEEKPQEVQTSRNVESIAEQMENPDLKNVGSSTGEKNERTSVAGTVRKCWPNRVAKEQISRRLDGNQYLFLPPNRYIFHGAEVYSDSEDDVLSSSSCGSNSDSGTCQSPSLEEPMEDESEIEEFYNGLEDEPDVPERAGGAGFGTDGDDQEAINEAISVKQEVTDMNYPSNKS
Procedure: To analyze SIRT1 activity in a test tube, a deacetylation degree of acetylated lysine included in a substrate was measured using an SIRT1 Fluorometric Drug Discovery Kit (BML-AK555, ENZO Life Sciences Inc., NY, USA). 0.067 U/μl of a human recombinant SIRT1 enzyme and a test substance were mixed in a 96-well plate and reacted at 37° C. for 10 minutes. Subsequently, 167 μM substrate [379th to 382nd amino acid peptide of human p53, Arg-His-Lys-Lys(Ac)] and 1667 μM NAD^+ were added thereto, followed by reacting at 37° C. for 30 minutes. To stop the reaction of SIRT1, 50 μL of a developer including 2 mM nicotinamide was added, followed by reacting at 37° C. for 30 minutes. Chromophoric fluorescence intensity was measured at 360 nm excitation and 460 nm emission.

CSc1ccc(/C=C/C=C/C(=O)N2CCCCC2)cc1 [LJ-2501, (2E,4E)-5-(4-(methylthio)phenyl)-1-(piperine-1-yl)penta-2,4-diene-1-one]
cumulative weight gain, reduction compared to high-fat diet control group (HFD) [1]: 60%
diet intake amount compared to HFD control group [1]: not greatly different
epididymal fat, perirenal fat, mesenteric fat and retroperitoneal fat weights compared to HFD (in words) [1]: significant reduction
total weight of visceral fats (four fat types), reduction compared to HFD [1]: 72%
visceral fat amount in abdominal section image compared to HFD (naked eye) [1]: remarkably reduced
blood IL-6 concentration, reduction compared to HFD [2]: 38%
blood MCP-1 concentration, reduction compared to HFD [2]: 22%
blood TNF-α concentration, reduction compared to HFD [2]: 25%
blood leptin concentration, reduction compared to HFD [2]: 25%
Vmax value of SIRT1 ([3]; in presence of 600 μM compound): without change
concentration at which SIRT1 activity was highest ([3]; increasing concentration of compound, human recombinant SIRT1): 600 µM
